# From publication PMC9401864, “Cell‐Free Protein Synthesis for the Screening of Novel Azoreductases and Their Preferred Electron Donor” (Chembiochem, 2022)
# Experiments:
# Format in all cases: biochemical
# PaerAzoR [1] = molecular target: T1, PaerAzoR (Pseudomonas aeruginosa, UniProt Q9I5F3); experiment: methyl red degradation at […] nm with BNAH as electron donor, reconstituted cell-free (PURE) mix; conditions: 30 uM methyl red; 150 uM BNAH; 50 uM FMN; 100 mM sodium phosphate pH 6; 25 °C
# T1 construct: gene azoR1; codon-optimised gene in pET-24a(+); cell-free synthesis (PUREfrex2.0), unpurified
# T1 sequence (Q9I5F3 1-212): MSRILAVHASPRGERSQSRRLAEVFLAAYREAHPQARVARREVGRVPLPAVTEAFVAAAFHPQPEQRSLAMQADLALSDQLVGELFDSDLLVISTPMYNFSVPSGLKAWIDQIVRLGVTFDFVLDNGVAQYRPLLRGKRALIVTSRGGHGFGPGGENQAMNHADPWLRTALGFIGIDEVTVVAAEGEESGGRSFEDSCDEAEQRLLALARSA
# EfaeAzoR [2] = molecular target: T2, EfaeAzoR (Enterococcus faecalis, UniProt Q831B2); experiment: methyl red degradation at […] nm with NADH as electron donor, reconstituted cell-free (PURE) mix; conditions: 30 uM methyl red; 150 uM NADH; 50 uM FMN; 100 mM sodium phosphate pH 6; 25 °C
# T2 construct: gene azoR; codon-optimised gene in pET-24a(+); cell-free synthesis (PUREfrex2.0), unpurified
# TvarAzoR [3] = molecular target: T3, TvarAzoR (Trichormus variabilis, UniProt Q3M1N6); experiment: methyl red degradation at […] nm, reconstituted cell-free (PURE) mix; conditions: 150 uM NADH, NADPH or BNAH; 50 uM FMN; 100 mM sodium phosphate pH 6; 25 °C; 30 uM dye
# T3 construct: gene azoR1; codon-optimised gene in pET-24a(+); cell-free synthesis (PUREfrex2.0), unpurified
# T3 sequence (Q3M1N6 1-207): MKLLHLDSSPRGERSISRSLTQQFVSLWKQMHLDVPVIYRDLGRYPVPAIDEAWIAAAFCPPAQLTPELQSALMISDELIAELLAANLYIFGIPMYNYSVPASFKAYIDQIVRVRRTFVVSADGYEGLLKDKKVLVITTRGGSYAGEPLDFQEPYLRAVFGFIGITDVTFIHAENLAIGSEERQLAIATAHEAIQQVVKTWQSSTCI
# PaerAzoR [4] = molecular target: T1, PaerAzoR; experiment: as above; conditions: 150 uM BNAH; 50 uM FMN; 100 mM sodium phosphate pH 6; 25 °C; 30 uM dye
# StypAzoR [5] = molecular target: T4, StypAzoR (Salmonella enterica, UniProt P63462); experiment: as above; conditions: 150 uM NADH, NADPH or BNAH; 50 uM FMN; 100 mM sodium phosphate pH 6; 25 °C; 30 uM dye
# T4 construct: gene azoR; codon-optimised gene in pET-24a(+); cell-free synthesis (PUREfrex2.0), unpurified
# EfaeAzoR [6] = molecular target: T2, EfaeAzoR; experiment: as above; conditions: 150 uM NADH, NADPH or BNAH; 50 uM FMN; 100 mM sodium phosphate pH 6; 25 °C; 30 uM dye
# RferAzoR [7] = molecular target: T5, RferAzoR (Rhodoferax ferrireducens, UniProt Q220J4); experiment: as above; conditions: 150 uM NADH, NADPH or BNAH; 50 uM FMN; 100 mM sodium phosphate pH 6; 25 °C; 30 uM dye
# T5 construct: gene azoR; codon-optimised gene in pET-24a(+); cell-free synthesis (PUREfrex2.0), unpurified
# T5 sequence (Q220J4 1-203): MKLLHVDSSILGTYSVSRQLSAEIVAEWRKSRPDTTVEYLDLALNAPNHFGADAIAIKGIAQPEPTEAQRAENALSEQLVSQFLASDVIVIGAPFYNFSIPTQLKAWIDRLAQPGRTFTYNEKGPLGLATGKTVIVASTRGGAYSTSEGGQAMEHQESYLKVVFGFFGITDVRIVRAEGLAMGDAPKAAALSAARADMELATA
# RopaAzoR [8] = molecular target: T6, RopaAzoR (Rhodococcus opacus, UniProt A0A1B1KJ01); experiment: as above; conditions: 150 uM NADH; 50 uM FMN; 100 mM sodium phosphate pH 6; 25 °C; 30 uM dye
# T6 construct: gene azoR; cell-free synthesis (PUREfrex2.0), unpurified
# T6 sequence (A0A1B1KJ01 1-214): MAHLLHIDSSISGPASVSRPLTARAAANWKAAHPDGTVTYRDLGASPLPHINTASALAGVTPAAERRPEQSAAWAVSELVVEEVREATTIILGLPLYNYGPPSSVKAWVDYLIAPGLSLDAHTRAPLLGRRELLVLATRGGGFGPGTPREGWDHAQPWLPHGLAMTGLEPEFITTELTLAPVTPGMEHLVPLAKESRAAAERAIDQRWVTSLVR
# RferAzoR [9] = molecular target: T5, RferAzoR; experiment: Brilliant Black degradation at […] nm, reconstituted cell-free (PURE) mix; conditions: 150 uM NADH; 50 uM FMN; 100 mM sodium phosphate pH 6; 25 °C; 30 uM dye
# RopaAzoR [10] = molecular target: T6, RopaAzoR; experiment: as above; conditions: 150 uM NADH; 50 uM FMN; 100 mM sodium phosphate pH 6; 25 °C; 30 uM dye
# TvarAzoR [11] = molecular target: T3, TvarAzoR; experiment: as above; conditions: 150 uM NADH; 50 uM FMN; 100 mM sodium phosphate pH 6; 25 °C; 30 uM dye
# StypAzoR [12] = molecular target: T4, StypAzoR; experiment: as above; conditions: 150 uM NADH; 50 uM FMN; 100 mM sodium phosphate pH 6; 25 °C; 30 uM dye
# T4 sequence (P63462 2-201): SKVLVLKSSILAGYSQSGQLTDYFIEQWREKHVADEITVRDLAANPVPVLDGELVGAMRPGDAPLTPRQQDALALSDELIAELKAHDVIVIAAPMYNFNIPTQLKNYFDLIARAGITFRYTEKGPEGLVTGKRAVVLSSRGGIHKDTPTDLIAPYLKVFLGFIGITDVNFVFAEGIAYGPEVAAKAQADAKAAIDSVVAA
# T2 sequence (Q831B2 whole entry): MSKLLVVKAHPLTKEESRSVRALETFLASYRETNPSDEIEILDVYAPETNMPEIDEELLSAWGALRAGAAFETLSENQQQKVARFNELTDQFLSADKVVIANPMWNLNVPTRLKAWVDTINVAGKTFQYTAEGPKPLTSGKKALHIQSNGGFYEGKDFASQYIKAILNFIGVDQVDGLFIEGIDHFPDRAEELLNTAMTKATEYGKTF
smiles,measurement,setting,value
"NC(=O)C1=CN(Cc2ccccc2)C=CC1 [BNAH, 1‐benzyl‐1,4‐dihydronicotinamide]","methyl red degradation at 430 nm with BNAH as electron donor, reconstituted cell",PaerAzoR [1],PaerAzoR catalyzed the degradation of methyl red using BNAH as co‐substrate
NC(=O)C1=CN([C@@H]2O[C@H](COP(=O)(O)OP(=O)(O)OC[C@H]3O[C@@H](n4cnc5c(N)ncnc54)[C@H](O)[C@@H]3O)[C@@H](O)[C@H]2O)C=CC1 [NADH],"methyl red degradation at 430 nm with NADH as electron donor, reconstituted cell",EfaeAzoR [2],EfaeAzoR seems to have a strong preference for NADH
CN(C)c1ccc(/N=N/c2ccccc2C(=O)O)cc1 [methyl red],"methyl red degradation at 430 nm, reconstituted cell-free (PURE) mix",TvarAzoR [3],all undescribed enzymes catalyzed the degradation of methyl red
same,"methyl red degradation at 430 nm, reconstituted cell-free (PURE) mix",PaerAzoR [4],PaerAzoR catalyzed the degradation of methyl red using BNAH as co‐substrate
same,"methyl red degradation at 430 nm, reconstituted cell-free (PURE) mix",StypAzoR [5],all undescribed enzymes catalyzed the degradation of methyl red
same,"methyl red degradation at 430 nm, reconstituted cell-free (PURE) mix",EfaeAzoR [6],Noteworthy are the very high activities of StypAzoR and EfaeAzoR
same,"methyl red degradation at 430 nm, reconstituted cell-free (PURE) mix",RferAzoR [7],all undescribed enzymes catalyzed the degradation of methyl red
same,"methyl red degradation at 430 nm, reconstituted cell-free (PURE) mix",RopaAzoR [8],"active RopaAzoR was synthesized, and substrate degradation was detected in the activity assay"
CC(=O)Nc1ccc(S(=O)(=O)O)c2cc(S(=O)(=O)O)c(N=Nc3ccc(N=Nc4ccc(S(=O)(=O)O)cc4)c4ccc(S(=O)(=O)O)cc34)c(O)c12 [Brilliant Black],"Brilliant Black degradation at 570 nm, reconstituted cell-free (PURE) mix",RferAzoR [9],All five enzymes and RopaAzoR were able to degrade BB.
same,"Brilliant Black degradation at 570 nm, reconstituted cell-free (PURE) mix",RopaAzoR [10],All five enzymes and RopaAzoR were able to degrade BB.
same,"Brilliant Black degradation at 570 nm, reconstituted cell-free (PURE) mix",TvarAzoR [11],All five enzymes and RopaAzoR were able to degrade BB.
same,"Brilliant Black degradation at 570 nm, reconstituted cell-free (PURE) mix",StypAzoR [12],All five enzymes and RopaAzoR were able to degrade BB.
